Experimental data taken from article PMC11551917 (RSC Advances, 2024).

Target: Jack-bean urease (Canavalia ensiformis, UniProt P07374)
Experiment: indophenol ammonia assay, […] nm
Assay type: biochemical

Chain of Jack-bean urease (P07374 whole entry, looked up): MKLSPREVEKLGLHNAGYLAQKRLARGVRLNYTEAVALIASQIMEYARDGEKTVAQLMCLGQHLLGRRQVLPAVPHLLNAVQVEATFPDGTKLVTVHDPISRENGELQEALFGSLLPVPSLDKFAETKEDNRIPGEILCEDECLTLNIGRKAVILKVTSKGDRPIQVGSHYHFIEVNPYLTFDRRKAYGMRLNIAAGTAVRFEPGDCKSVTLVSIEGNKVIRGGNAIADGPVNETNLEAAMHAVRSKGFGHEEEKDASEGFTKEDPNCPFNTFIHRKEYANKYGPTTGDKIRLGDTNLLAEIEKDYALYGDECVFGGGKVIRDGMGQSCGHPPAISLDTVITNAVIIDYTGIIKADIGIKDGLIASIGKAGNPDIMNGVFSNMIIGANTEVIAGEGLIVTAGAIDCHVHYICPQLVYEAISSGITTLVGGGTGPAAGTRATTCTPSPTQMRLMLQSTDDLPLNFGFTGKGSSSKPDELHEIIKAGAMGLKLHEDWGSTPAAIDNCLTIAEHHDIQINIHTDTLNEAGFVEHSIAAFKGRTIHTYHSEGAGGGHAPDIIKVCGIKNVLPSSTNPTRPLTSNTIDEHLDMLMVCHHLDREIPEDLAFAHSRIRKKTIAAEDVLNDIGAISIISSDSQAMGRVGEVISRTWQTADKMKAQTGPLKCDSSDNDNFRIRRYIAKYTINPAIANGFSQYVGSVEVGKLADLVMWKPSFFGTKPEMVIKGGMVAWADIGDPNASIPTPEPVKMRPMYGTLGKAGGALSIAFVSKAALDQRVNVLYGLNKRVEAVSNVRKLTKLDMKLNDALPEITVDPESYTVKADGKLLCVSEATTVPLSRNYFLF

Row | SMILES | IC50
1 | Nc1cccc(C(=O)O)c1 [3-ABA] | 31.4 ± 0.48 µM
2 | NC(N)=S [Thiourea] | 24.5 ± 0.47 µM
